From patent publication US12692254B2, “Benzimidazole inhibitors of PAD enzymes” (BRISTOL-MYERS SQUIBB COMPANY, priority 2018, dated 2026) come the findings set out here.

This experiment deals with human PAD4 (hPAD4) (Homo sapiens, UniProt Q9UM07). Description: RFMS human PAD4 functional assay (rapid-fire mass spectrum). In kind it is biochemical. As to conditions: 5 nM hPAD4 enzyme, 250 μM BAEE, 50 μM Calcium; 30 min preincubation, 90 min reaction at 37° C. A digest of the protocol:
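PAD4 (10 nM) preincubated 30 min with compound (top final 50 μM), then BAEE substrate added in pH 7.5 HEPES buffer with DTT, 50 μM calcium, TPEN; 90 min at 37° C. After TCA quench, citrulline derivatized with phenyl glyoxal (4 mM final, 30 min, 37° C) and quantified by RapidFire MS against internal standard.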

Sequence of human PAD4 (hPAD4) (Q9UM07 whole entry): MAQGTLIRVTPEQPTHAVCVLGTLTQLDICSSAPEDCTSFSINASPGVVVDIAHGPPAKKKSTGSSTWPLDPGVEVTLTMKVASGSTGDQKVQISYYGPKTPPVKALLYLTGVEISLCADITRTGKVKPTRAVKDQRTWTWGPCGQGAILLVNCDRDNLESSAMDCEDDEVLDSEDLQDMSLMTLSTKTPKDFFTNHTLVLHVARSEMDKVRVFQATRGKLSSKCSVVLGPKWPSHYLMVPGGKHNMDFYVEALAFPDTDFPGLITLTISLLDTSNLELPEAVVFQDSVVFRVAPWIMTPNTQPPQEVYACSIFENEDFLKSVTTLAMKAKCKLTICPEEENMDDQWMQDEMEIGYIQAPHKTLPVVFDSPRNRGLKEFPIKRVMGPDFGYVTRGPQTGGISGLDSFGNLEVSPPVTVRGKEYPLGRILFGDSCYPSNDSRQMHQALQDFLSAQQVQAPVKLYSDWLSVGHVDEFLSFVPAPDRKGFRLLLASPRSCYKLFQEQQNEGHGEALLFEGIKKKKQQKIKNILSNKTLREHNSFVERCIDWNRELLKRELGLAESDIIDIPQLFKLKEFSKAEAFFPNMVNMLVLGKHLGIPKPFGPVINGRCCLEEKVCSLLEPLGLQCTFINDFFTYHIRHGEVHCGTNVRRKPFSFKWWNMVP

Usually IC50 stands for the concentration needed to halve the response being measured. For the compound `COc1cc(C(=O)N2C[C@H](N)C[C@@H](F)C2)cc2nc(-c3cc4cccnc4n3CC3CC3)n(Cc3cn(C)nc3C)c12` [Example 507, (3R,5R)-1-{2-[1-(cyclopropylmethyl)-1H-pyrrolo[2,3-b]pyridin-2-yl]-1-[(1,3-dimethyl-1H-pyrazol-4-yl)methyl]-7-methoxy-1H-1,3-benzodiazole-5-carbonyl}-5-fluoropiperidin-3-amine], the IC50 amounted to 256 nM.
In the case of `COc1cc(C(=O)N2C[C@H]3CC[C@@H]2[C@@H]3N)cc2nc(-c3cc4cccnc4n3CC3CC3)n(CC3CN(C(=O)c4ccc(C#N)cc4)C3)c12` [Example 112, 4-[3-({5-[(1R,4R,7R)-7-amino-2-azabicyclo[2.2.1]heptane-2-carbonyl]-2-[1-(cyclopropylmethyl)-1H-pyrrolo[2,3-b]pyridin-2-yl]-7-methoxy-1H-1,3-benzodiazol-1-yl}methyl)azetidine-1-carbonyl]benzonitrile], the IC50 stood at 51 nM.
With `C=CC(=O)N1CC(Cn2c(-c3cc4cccnc4n3CC3CC3)nc3cc(C(=O)N4C[C@H]5CC[C@@H]4[C@@H]5N)cc(OC)c32)C1` [Example 124, 1-[3-({5-[(1R,4R,7R)-7-amino-2-azabicyclo[2.2.1]heptane-2-carbonyl]-2-[1-(cyclopropylmethyl)-1H-pyrrolo[2,3-b]pyridin-2-yl]-7-methoxy-1H-1,3-benzodiazol-1-yl}methyl)azetidin-1-yl]prop-2-en-1-one], the IC50 was 102 nM.
Regarding `COc1cc(C(=O)N2C[C@H]3CC[C@@H]2[C@@H]3N)cc2nc(-c3cc4ccccc4n3CC3CC3)n(CC3CN(c4cncnc4C#N)C3)c12` [Example 19, 5-[3-({5-[(1R,4R,7R)-7-amino-2-azabicyclo[2.2.1]heptane-2-carbonyl]-2-[1-(cyclopropylmethyl)-1H-indol-2-yl]-7-methoxy-1H-1,3-benzodiazol-1-yl}methyl)azetidin-1-yl]pyrimidine-4-carbonitrile], the IC50 amounted to 55 nM.
With `COc1cc(C(=O)N2C[C@H](N)C[C@@H](F)C2)cc2nc(-c3cc4cccnc4n3CC3CC3)n(Cc3cnn(-c4cnccn4)c3)c12` [Example 397, (3R,5R)-1-{2-[1-(cyclopropylmethyl)-1H-pyrrolo[2,3-b]pyridin-2-yl]-7-methoxy-1-{[1-(pyrazin-2-yl)-1H-pyrazol-4-yl]methyl}-1H-1,3-benzodiazole-5-carbonyl}-5-fluoropiperidin-3-amine] the figure was 53 nM.
As for `COc1cc(C(=O)N2C[C@H]3CC[C@@H]2[C@@H]3N)cc2nc(-c3cc4cccnc4n3C)n(C[C@H]3CCN(c4ccnc(C)n4)C3)c12` [Example 213, (1R,4R,7R)-2-(7-methoxy-2-{1-methyl-1H-pyrrolo[2,3-b]pyridin-2-yl}-1-{[(3S)-1-(2-methylpyrimidin-4-yl)pyrrolidin-3-yl]methyl}-1H-1,3-benzodiazole-5-carbonyl)-2-azabicyclo[2.2.1]heptan-7-amine], the figure is 99 nM; as for `COc1cc(C(=O)N2C[C@H](N)C[C@@H](F)C2)cc2nc(-c3cc4cccnc4n3CC3CC3)n(Cc3cnn(-c4cccnc4O)c3)c12` [Example 382, 3-[4-({5-[(3R,5R)-3-amino-5-fluoropiperidine-1-carbonyl]-2-[1-(cyclopropylmethyl)-1H-pyrrolo[2,3-b]pyridin-2-yl]-7-methoxy-1H-1,3-benzodiazol-1-yl}methyl)-1H-pyrazol-1-yl]pyridin-2-ol], 41 nM; as for `N[C@@H]1C2CCC1N(C(=O)c1cc(F)c3c(c1)nc(-c1cc4ccccc4n1CC1CC1)n3CC1CN(C(=O)c3ccccc3)C1)C2` (stereo partly drawn) [Example 136, (1R,4R,7R)-2-{1-[(1-benozylazetidin-3-yl)methyl]-2-[1-(cyclopropylmethyl)-1H-indol-2-yl]-7-fluoro-1H-1,3-benzodiazole-5-carbonyl}-2-azabicyclo[2.2.1]heptan-7-amine], 11 nM.
In the case of `COc1cc(C(=O)N2CC3CCC2[C@@H]3N)cc2nc(-c3cc4cccnc4n3CC3CC3)n(Cc3ccn(C)n3)c12` (stereo partly drawn) [Example 499, (7R)-2-{2-[1-(cyclopropylmethyl)-1H-pyrrolo[2,3-b]pyridin-2-yl]-7-methoxy-1-[(1-methyl-1H-pyrazol-3-yl)methyl]-1H-1,3-benzodiazole-5-carbonyl}-2-azabicyclo[2.2.1]heptan-7-amine], the IC50 was found to be 125 nM.
Turning to `COc1cc(C(=O)N2C[C@H](N)C[C@@H](F)C2)cc2nc(-c3cc4cccnc4n3CC3CC3)n(CC3CN(C(=O)c4ccccc4)C3)c12` [Example 452, (3R,5R)-1-{[(1-benzoylazetidin-3-yl)methyl]-2-[1-(cyclopropylmethyl)-1H-pyrrolo[2,3-b]pyridin-2-yl]-7-methoxy-1H-1,3-benzodiazole-5-carbonyl}-5-fluoropiperidin-3-amine], the IC50 was found to be 48 nM.
Turning to `COc1cc(C(=O)N2CC3CCC2[C@@H]3N)cc2nc(-c3cc4ccccc4n3CC3CC3)n(CC3CN(C(=O)c4ccc(C#N)cn4)C3)c12` (stereo partly drawn) [Example 435, 6-[3-({5-[(7R)-7-amino-2-azabicyclo[2.2.1]heptane-2-carobnyl]-2-[1-(cyclopropylmethyl)-1H-indol-2-yl]-7-methoxy-1H-1,3-benzodiazol-1-yl}methyl)azetidine-1-carobnyl]pyridine-3-carbonitrile], the IC50 turned out to be 34 nM.
With `COc1cc(C(=O)N2CC3CCC2[C@@H]3N)cc2nc(-c3cc4ccccc4n3CC3CC3)n(CC3CN(C(=O)[C@@H]4C[C@H]4c4ccccc4)C3)c12` (stereo partly drawn) [Example 162, (1R,4R,7R)-2-{2-[1-(cyclopropylmethyl)-1H-indol-2-yl]-7-methoxy-1-({1-[(1R,2R)-2-phenylcyclopropanecarbonyl]aze-tidin-3-yl}methyl)-1H-1,3-benzodiazole-5-carbonyl}-2-azabicyclo[2.2.1]heptan-7-amine] the figure was 25 nM; with `COc1cc(C(=O)N2C[C@H]3CC[C@@H]2[C@@H]3N)cc2nc(-c3cc4ccccc4n3CC3CC3)n(CC3CN(c4cncc(C#N)c4)C3)c12` [Example 67, 5-[3-({5-[(1R,4R,7R)-7-amino-2-azabicyclo[2.2.1]heptane-2-carbonyl]-2-[1-(cyclopropylmethyl)-1H-indol-2-yl]-7-methoxy-1H-1,3-benzodiazol-1-yl}methyl)azetidin-1-yl]pyridine-3-carbonitrile], 40 nM; with `COc1cc(C(=O)N2C[C@H]3CC[C@@H]2[C@@H]3N)cc2nc(-c3cc4cccnc4n3CC3CC3)n(C3CN(C(=O)c4ccnc(C#N)c4)C3)c12` [Example 184, 4-(3-{5-[(1R,4R,7R)-7-amino-2-azabicyclo[2.2.1]heptane-2-carbonyl]-2-[1-(cyclopropylmethyl)-1H-pyrrolo[2,3-b]pyridin-2-yl]-7-methoxy-1H-1,3-benzodiazol-1-yl}azetidine-1-carbonyl)pyridine-2-carbonitrile], 309 nM.
With `COc1cc(C(=O)N2C[C@H]3CC[C@@H]2[C@@H]3N)cc2nc(-c3cc4cccnc4n3CC3CC3)n(C3CN(C(=O)c4ccncc4)C3)c12` [Example 189, (1R,4R,7R)-2-{2-[1-(cyclopropylmethyl)-1H-pyrrolo[2,3-b]pyridin-2-yl]-7-methoxy-1-[1-(pyridine-4-carbonyl)azetidin-3-yl]-1H-1,3-benzodiazol-5-carbonyl}-2-azabicyclo[2.2.1]heptan-7-amine] the figure was 583 nM; with `COc1cc(C(=O)N2C[C@H]3CC[C@@H]2[C@@H]3N)cc2nc(-c3cc4cccnc4n3CC3CC3)n(CC3CN(c4cccnc4C#N)C3)c12` [Example 36, 3-[3-({5-[(1R,4R,7R)-7-amino-2-azabicyclo[2.2.1]heptane-2-carbonyl]-2-[1-(cyclopropylmethyl)-1H-pyrrolo[2,3-b]pyridin-2-yl]-7-methoxy-1H-1,3-benzodiazol-1-yl}methyl)azetidin-1-yl]pyridine-2-carbonitrile], 92 nM.
Turning to `COc1cc(C(=O)N2CC3CCC2[C@@H]3N)cc2nc(-c3cc4cccnc4n3CC3CC3)n(C3CN(S(=O)(=O)c4ccc(C#N)cc4)C3)c12` (stereo partly drawn) [Example 339, 4-[(3-{5-[(1R,4R,7R)-7-amino-2-azabicyclo[2.2.1]heptane-2-carbonyl]-2-[1-(cyclopropylmethyl)-1H-pyrrolo[2,3-b]pyridin-2-yl]-7-methoxy-1H-1,3-benzodiazo1-1-yl}azetidin-1-yl)sulfonyl]benzonitrile], the IC50 worked out at 536 nM.
Consider `COc1cc(C(=O)N2C[C@H]3CC[C@@H]2[C@@H]3N)cc2nc(-c3cc4cccnc4n3CC3CC3)n(C3CCN(C(=O)c4ccnc(F)c4)CC3)c12` [Example 241, (1R,4R,7R)-2-{2-[1-(cyclopropylmethyl)-1H-pyrrolo[2,3-b]pyridin-2-yl]-1-[1-(2-fluoropyridine-4-carbonyl)piperidin-4-yl]-7-methoxy-1H-1,3-benzodiazole-5-carbonyl}-2-azabicyclo[2.2.1]heptan-7-amine], for which the IC50 was determined as 2540 nM.
For `COc1cc(C(=O)N2CC3CCC2[C@@H]3N)cc2nc(-c3cc4cccnc4n3CC3CC3)n(CC3CCN(C(=O)c4ncccn4)CC3)c12` (stereo partly drawn) [Example 236, (1R,4R.,7R)-2-{2-[1-(cyclopropylmethyl)-1H-pyrrolo[2,3-b]pyridin-2-yl]-7-methoxy-1-{[1-(pyrimidine-2-carbonyl)piperidin-4-yl]methyl}-1H-1,3-benzodiazole-5-carbonyl}-2-azabicyclo[2.2.1]heptan-7-amine], the IC50 turned out to be 402 nM.
As for `COc1cc(C(=O)N2C[C@H]3CC[C@@H]2[C@@H]3N)cc2nc(-c3cc4ccccc4n3C)n(CC3CN(c4ncccn4)C3)c12` [Example 48, (1R,4R,7R)-2-[7-methoxy-2-(1-methyl-1H-indol-2-yl)-1-{[1-(pyrimidin-2-yl)azetidin-3-yl]methyl}-1H-1,3-benzodiazole-5-carbonyl]-2-azabicyclo[2.2.1]heptan-7-amine], the figure is 122 nM.
